Results: patent publication US20020169111A1, “Reversal of multidrug resistance in human colon carcinoma cells” (American Cyanamid Comany, priority 1998, published 2002)
Read-outs that look alike come from different tables or passages of the source.

Tests used:
S1-M1-3.2 cells [1] = experiment: Cytotoxicity of antitumor agents, 3-day SRB assay, mitoxantrone-selected cells; format: cell-based, human; settings: relative to S1; 2-7 independent experiments
Experimental: Cells were cultured for three days in the presence of the antitumor agent (triplicate points per dose). Following a 3-day growth period, cells were fixed in 10% trichloroacetic acid (TCA) for 1 hour, washed extensively with water, and cell-associated protein was stained using 0.1% sulforhodamine B (SRB), a protein binding reagent [Rubinstein et al., Journal of the National Cancer Institute 82, 1113-1118 (1990) and Skehan et al., Journal of the National Cancer Institute 82, 1107-1112 (1990)]. Excess reagent was removed by washing plates in 5% acetic acid, the dye was solubilized in 10 mM Tris base, and absorbance determined in a UV Max spectrophotometer (Molecular Devices, Menlo Park, Calif.) at 540 nm. Cell survival was estimated relative to control wells (no drugs). EC50 values (μM) were estimated from cytotoxicity curves. For S1, the values shown [mean ±SE (number of independent observations)] are taken from Zhang et al., “P-Glycoprotein Mediates Profound Resistance to Bisantrene,” Oncol. Res., 6:291-301, 1994. Values for S1-M1-3.2 are compiled from 2-7 independent experiments.

S1-M1-3.2 cells [2] = experiment: Dose modifying factor of FTC (SRB, EC50 ratio); format: cell-based, human; settings: S1-M1 versus S1, no reversal agent
Experimental: Cell survival was estimated after 3 days using the SRB assay. Cell survival was determined by the SRB assay and EC50 values were determined from toxicity curves. The dose modifying factor (DMF) is the ratio of EC50 values obtained in the absence and presence of reversal agent. Maximum DMF values (shown in parentheses) is the ratio of EC50 values of resistant and sensitive cells in the absence of the reversal agent. This value is obtained when resistance is reversed completely, and is the equivalent of the relative resistance.

MCF-7/BCRP cells [3] = experiment: Dose modifying factor of FTC in BCRP-transfected cells; format: cell-based, human; settings: MCF-7/BCRP versus MCF-7, no reversal agent
Experimental: Cell survival was estimated after 3 days using the SRB assay, and EC50 values were determined from cytotoxicity curves.

MCF-7 cells = format: cell-based, human; settings: 1 μM daunorubicin, 1 hour retention phase
Experimental: (§1) All incubations were carried out in the absence or presence of FTC (1 or 5 μM).

MCF-7/BCRP cells [4] = format: cell-based, human
Experimental: as §1

S1-M1-3.2 cells [5] = settings: 1 hour efflux with energy depletor, growth medium = 100
Experimental: (§2) Cell-associated radioactivity was measured at the indicated times. Values are mean percentage of drug remaining (triplicate determinations) ± standard deviation.
(§3) After 1 hour, cells were prepared for analysis by scintillation counting. Values shown are mean percentage of drug remaining (triplicate determinations) ± standard deviation.

S1 cells = settings: 1 hour efflux with energy depletor, growth medium = 100
Experimental: as §2, §3

S1-B1-20 cells = settings: 1 hour efflux with energy depletor, growth medium = 100
Experimental: as §2, §3

S1-M1-3.2 cells [6] = settings: for Per Cent Survival Alone: 3 days; for Difference Score: survival alone minus survival with 3.2 μM mitoxantrone
Experimental: One of the first reported molecules with reversing activity was verapamil, a calcium channel blocker. […] Cells were plated into 96-well dishes (100 μl/well) in growth medium supplemented with 5% FBS. […] Reversal agents were tested from 0.1-80 μM (triplicate points per dose). In parallel wells, cells were grown in the presence of the reversal agent alone.
The Difference Score is the difference in the percentage of cells surviving when the drug was given alone minus the percentage of cells surviving when the drug was given along with the antitumor agent.
Cell survival was estimated using the Sulforhodamine (SRB) assay.

COc1cc([C@@H]2c3cc4c(cc3[C@@H](O[C@@H]3O[C@@H]5CO[C@@H](C)O[C@H]5[C@H](O)[C@H]3O)[C@H]3COC(=O)[C@H]23)OCO4)cc(OC)c1O [etoposide]
S1-M1-3.2 (relative resistance) (S1-M1-3.2 cells [1]): 6

COc1cc(NS(C)(=O)=O)ccc1Nc1c2ccccc2nc2ccccc12 [m-AMSA]
S1-M1-3.2 (relative resistance) (S1-M1-3.2 cells [1]): 11

CC[C@@]1(O)C(=O)OCc2c1cc1n(c2=O)Cc2cc3c(CN(C)C)c(O)ccc3nc2-1 [topotecan, reference compound]
Maximum DMF (in parentheses; relative resistance to the antitumor agent) (S1-M1-3.2 cells [2]): 41
Maximum DMF (in parentheses; relative resistance to the antitumor agent) (MCF-7/BCRP cells [3]): 3.3
S1-M1-3.2 (relative resistance) (S1-M1-3.2 cells [1]): 41

CC[C@]1(O)C[C@@H]2CN(CCc3c([nH]c4ccccc34)[C@@](C(=O)OC)(c3cc4c(cc3OC)N(C)[C@H]3[C@@](O)(C(=O)OC)[C@H](OC(C)=O)[C@]5(CC)C=CCN6CC[C@]43[C@@H]65)C2)C1 [vinblastine]
S1-M1-3.2 (relative resistance) (S1-M1-3.2 cells [1]): 3

COc1cccc2c1C(=O)c1c(O)c3c(c(O)c1C2=O)C[C@@](O)(C(C)=O)C[C@@H]3O[C@H]1C[C@H](N)[C@H](O)[C@H](C)O1 [daunorubicin, reference compound]
daunorubicin retention, Channel Number (fluorescence units), No FTC (MCF-7 cells): 15.2 ± 0.39 fluorescence units
daunorubicin retention, Channel Number (fluorescence units), No FTC (MCF-7/BCRP cells [4]): 6.8 ± 0.33 fluorescence units

[N-]=[N+]=[N-].[Na+] [PBS + sodium azide, sodium azide]
% mitoxantrone remaining in cell line (S1-M1-3.2 cells [5]): 285 ± 43%
% mitoxantrone remaining in cell line (S1 cells): 137 ± 14%
% mitoxantrone remaining in cell line (S1-B1-20 cells): 217 ± 6%

COc1cc([C@@H]2c3cc4c(cc3[C@@H](O[C@@H]3O[C@@H]5CO[C@@H](c6cccs6)O[C@H]5[C@H](O)[C@H]3O)[C@H]3COC(=O)[C@H]23)OCO4)cc(OC)c1O [VM-26, teniposide]
S1-M1-3.2 (relative resistance) (S1-M1-3.2 cells [1]): 18

C(=N\NC1=NCCN1)/c1c2ccccc2c(/C=N/NC2=NCCN2)c2ccccc12 [bisantrene]
S1-M1-3.2 (relative resistance) (S1-M1-3.2 cells [1]): 24

COc1ccc2c3c4n(c2c1)[C@@H](C=C(C)C)OOC(C)(C)C[C@@H]4N1C(=O)[C@@H]2CCCN2C(=O)[C@]1(O)[C@H]3OCC=C(C)C [Fumitremorgin A]
concentration giving 40% cell death (compound alone) (S1-M1-3.2 cells [6]; S1-M1-3.2 cells): 20 µM
activity in the reversal assay compared to FTC, fold lower (S1-M1-3.2 cells [6]; S1-M1-3.2 cells, Table 7 versus Table 8): 20 fold
Per Cent Survival with 3.2 μM mitoxantrone (S1-M1-3.2 cells [6]; S1-M1-3.2 cells, drug 0.1 μM): 96 ± 2 Per Cent
Per Cent Survival Alone (S1-M1-3.2 cells [6]; S1-M1-3.2 cells, drug 0.1 μM alone): 95 ± 1 Per Cent
Difference Score (S1-M1-3.2 cells [6]; S1-M1-3.2 cells, drug 0.1 μM): −1
Per Cent Survival with 3.2 μM mitoxantrone (S1-M1-3.2 cells [6]; S1-M1-3.2 cells, drug 0.5 μM): 95 ± 4 Per Cent
Per Cent Survival Alone (S1-M1-3.2 cells [6]; S1-M1-3.2 cells, drug 0.5 μM alone): 96 ± 2 Per Cent
Difference Score (S1-M1-3.2 cells [6]; S1-M1-3.2 cells, drug 0.5 μM): 1
Per Cent Survival with 3.2 μM mitoxantrone (S1-M1-3.2 cells [6]; S1-M1-3.2 cells, drug 1 μM): 94 ± 5 Per Cent
Per Cent Survival Alone (S1-M1-3.2 cells [6]; S1-M1-3.2 cells, drug 1 μM alone): 96 ± 1 Per Cent
Difference Score (S1-M1-3.2 cells [6]; S1-M1-3.2 cells, drug 1 μM): 2
Per Cent Survival with 3.2 μM mitoxantrone (S1-M1-3.2 cells [6]; S1-M1-3.2 cells, drug 5 μM): 64 ± 4 Per Cent
Per Cent Survival Alone (S1-M1-3.2 cells [6]; S1-M1-3.2 cells, drug 5 μM alone): 96 ± 1 Per Cent
Difference Score (S1-M1-3.2 cells [6]; S1-M1-3.2 cells, drug 5 μM): 32
Per Cent Survival with 3.2 μM mitoxantrone (S1-M1-3.2 cells [6]; S1-M1-3.2 cells, drug 10 μM): 40 ± 6 Per Cent
Per Cent Survival Alone (S1-M1-3.2 cells [6]; S1-M1-3.2 cells, drug 10 μM alone): 89 ± 9 Per Cent
Difference Score (S1-M1-3.2 cells [6]; S1-M1-3.2 cells, drug 10 μM): 49
Per Cent Survival with 3.2 μM mitoxantrone (S1-M1-3.2 cells [6]; S1-M1-3.2 cells, drug 20 μM): 35 ± 5 Per Cent
Per Cent Survival Alone (S1-M1-3.2 cells [6]; S1-M1-3.2 cells, drug 20 μM alone): 59 ± 4 Per Cent
Difference Score (S1-M1-3.2 cells [6]; S1-M1-3.2 cells, drug 20 μM): 24
Per Cent Survival with 3.2 μM mitoxantrone (S1-M1-3.2 cells [6]; S1-M1-3.2 cells, drug 40 μM): 34 ± 4 Per Cent
Per Cent Survival Alone (S1-M1-3.2 cells [6]; S1-M1-3.2 cells, drug 40 μM alone): 50 ± 8 Per Cent
Difference Score (S1-M1-3.2 cells [6]; S1-M1-3.2 cells, drug 40 μM): 16
Per Cent Survival with 3.2 μM mitoxantrone (S1-M1-3.2 cells [6]; S1-M1-3.2 cells, drug 80 μM): 34 ± 4 Per Cent
Per Cent Survival Alone (S1-M1-3.2 cells [6]; S1-M1-3.2 cells, drug 80 μM alone): 41 ± 8 Per Cent
Difference Score (S1-M1-3.2 cells [6]; S1-M1-3.2 cells, drug 80 μM): 7
Toxicity (>20%) (S1-M1-3.2 cells [6]; compound alone, concentration that causes greater than 20% cell death of S1-M1-3.2 cells): 15.0 µM
IC50 (S1-M1-3.2 cells [6]; read-out: IC50 (μM), resensitizing S1-M1-3.2 cells to mitoxantrone, with 3.2 μM mitoxantrone, 50% cancer cell death): 7 µM
